Article PMC7707423 (Acta biomaterialia, 2017)

Columns and labels:
[1] = molecular target: IGF-I (Homo sapiens, UniProt P05019); experiment: Surface plasmon resonance, IGF-I binding to alginate materials; settings: SPR
[2] = test system: chondrocytes; experiment: GAG synthesis by encapsulated chondrocytes; type: cell-based, Bos taurus; settings: control (empty vector) chondrocytes; 0-100 μM KPLHALL, 30 days
[3] = test system: chondrocytes; experiment: Hydroxyproline; type: cell-based, Bos taurus; settings: 10, 33 and 100 μM binding sites; p<0.001 by 2-way ANOVA
[4] = test system: IGF-I; experiment: Immunohistochemistry / retention of IGF-I in chondrocyte constructs; type: cell-based, Bos taurus; settings: 100 μM of binding sites
[5] = test system: type II collagen; experiment: Immunohistochemistry of constructs for type II collagen; type: cell-based, Bos taurus; settings: particularly at higher concentrations of KPLHALL
[6] = molecular target: mini-IGFBP-5 binding pocket (Homo sapiens) (UniProt P24593); settings: cited from earlier work
Chain of mini-IGFBP-5 binding pocket (Homo sapiens) (P24593 60-112): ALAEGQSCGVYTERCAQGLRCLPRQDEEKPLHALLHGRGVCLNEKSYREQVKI

[7] = molecular target: IGFBP-5 (Homo sapiens) (UniProt P24593); settings: cited from earlier work
Chain of IGFBP-5 (Homo sapiens) (P24593 21-272): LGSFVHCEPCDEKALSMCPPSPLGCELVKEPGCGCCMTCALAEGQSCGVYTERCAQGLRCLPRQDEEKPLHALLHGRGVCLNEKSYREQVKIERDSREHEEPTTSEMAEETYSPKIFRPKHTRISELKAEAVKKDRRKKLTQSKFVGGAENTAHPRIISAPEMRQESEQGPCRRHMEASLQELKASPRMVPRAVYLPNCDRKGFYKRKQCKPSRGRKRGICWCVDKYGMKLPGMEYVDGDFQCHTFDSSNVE

Chain of IGF-I (Homo sapiens, UniProt P05019) (P05019 49-118 limits assumed): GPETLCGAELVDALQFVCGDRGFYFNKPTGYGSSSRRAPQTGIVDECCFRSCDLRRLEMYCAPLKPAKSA
Chain of IGF-I (from UniProt P05019) (P05019 49-118): as the sequence (P05019 49-118 limits assumed) above

| KD shift of KPLHALL alginate compared to alginate ([1]; KD 50 nM vs 513 nM) [times] | enhancement of binding affinity for IGF-I by KPLHALL modification ([1]; vs unmodified alginate) | GAG synthesis enhancement (maximum of steady state, normalized to alginate 0 μM) [2] [fold] | Substance | effect on HYPRO of binding-site concentration [3] | IGF-I immunostaining at day 30 [4] | type II collagen immunostaining at day 30 [5] | Kd [6] [µM] | Kd [7] [µM] |
| --- | --- | --- | --- | --- | --- | --- | --- | --- |
| 10 | more than 10 fold | 1.6 | GGG-KPLALL (KPLHALL) [KPLHALL alginate] | greater in concentrations of 10, 33 and 100 μM binding sites | highest immunolocalization of IGF-I | robust staining for type II collagen | – | – |
| – | – | – | IGF-I (from UniProt P05019) | – | – | – | 0.037 | 0.0037 |
